test system: HCV pseudoparticles (genotype 1a HCV E1 and E2 envelope, H77C isolate); experiment: microbe, parasite or virus in culture; type: cell-based; settings: Hepatitis C virus, Huh-7, 48 h, HCV pseudoparticles (genotype 1a, H77C) in Huh7 cells; average of duplicate; luciferase 2 days after infection

SMILES	EC50
CC(C)(CNC(=O)C(N)=O)CNC(=O)c1ccc(Nc2nc(NC3(c4ccccc4)CC3)nc(OCC(F)(F)F)n2)cc1 [Compound 3244]	0.07 nM
CC(C)(CNC(=O)C(=O)Nc1ccc(Cl)nc1)CNC(=O)c1ccc(Nc2nc(NC3(c4ccc(Cl)cc4)CC3)nc(OCC(F)(F)F)n2)cc1 [Compound 3255]	0.029 nM
CC(C)(CNC(=O)C(=O)Nc1cccc(F)c1F)CNC(=O)c1ccc(Nc2nc(NC3(c4ccc(Cl)cc4)CC3)nc(OCC(F)(F)F)n2)cc1 [Compound 3261]	0.072 nM
CC(C)(CNC(=O)C(=O)Nc1ccc(C(=O)c2ccc(N)cc2)cc1)CNC(=O)c1ccc(Nc2nc(NC3(c4ccc(Cl)cc4)CC3)nc(OCC(F)(F)F)n2)cc1 [Compound 3264]	0.24 nM

same assay, conditions: Hepatitis C virus, Huh-7, read-out: Activity (EC50 class), HCV pseudoparticles (genotype 1a, H77C) in Huh7 cells; EC50 expressed as class A/B

SMILES	EC50
CC(C)(CNC(=O)C(N)=O)CNC(=O)c1ccc(Nc2nc(NC3(c4ccccc4)CC3)nc(OCC(F)(F)F)n2)cc1 [Compound 3244]	0.01 to 10 nM
CC(C)(CNC(=O)C(=O)Nc1cccnc1)CNC(=O)c1ccc(Nc2nc(NC3(c4ccc(Cl)cc4)CC3)nc(OCC(F)(F)F)n2)cc1 [Compound 3245]	0.01 to 10 nM
CC(C)(CNC(=O)C(=O)Nc1ccccc1-c1nnco1)CNC(=O)c1ccc(Nc2nc(NC3(c4ccc(Cl)cc4)CC3)nc(OCC(F)(F)F)n2)cc1 [Compound 3246]	0.01 to 10 nM
CC(C)(CNC(=O)C(N)=O)CNC(=O)c1ccc(Nc2nc(NC3(c4ccc(F)cc4)CC3)nc(OCC(F)(F)F)n2)cc1 [Compound 3247]	0.01 to 10 nM
CC(C)(CNC(=O)C(=O)Nc1ccccn1)CNC(=O)c1ccc(Nc2nc(NC3(c4ccc(Cl)cc4)CC3)nc(OCC(F)(F)F)n2)cc1 [Compound 3248]	0.01 to 10 nM
Cc1nc(C(F)(F)F)ccc1NC(=O)C(=O)NCC(C)(C)CNC(=O)c1ccc(Nc2nc(NC3(c4ccc(Cl)cc4)CC3)nc(OCC(F)(F)F)n2)cc1 [Compound 3249]	0.01 to 10 nM
CC(C)(CNC(=O)C(=O)Nc1ccc(C(F)(F)F)c(F)c1)CNC(=O)c1ccc(Nc2nc(NC3(c4ccc(Cl)cc4)CC3)nc(OCC(F)(F)F)n2)cc1 [Compound 3250]	0.01 to 10 nM
COc1cc(NC(=O)C(=O)NCC(C)(C)CNC(=O)c2ccc(Nc3nc(NC4(c5ccc(Cl)cc5)CC4)nc(OCC(F)(F)F)n3)cc2)ccn1 [Compound 3251]	0.01 to 10 nM
COc1cccc(NC(=O)C(=O)NCC(C)(C)CNC(=O)c2ccc(Nc3nc(NC4(c5ccc(Cl)cc5)CC4)nc(OCC(F)(F)F)n3)cc2)n1 [Compound 3252]	0.01 to 10 nM
CC(C)(CNC(=O)C(=O)Nn1cnnc1)CNC(=O)c1ccc(Nc2nc(NC3(c4ccc(Cl)cc4)CC3)nc(OCC(F)(F)F)n2)cc1 [Compound 3253]	0.01 to 10 nM
CC(C)(CNC(=O)C(=O)Nc1ccc(S(C)(=O)=O)cc1)CNC(=O)c1ccc(Nc2nc(NC3(c4ccc(Cl)cc4)CC3)nc(OCC(F)(F)F)n2)cc1 [Compound 3254]	0.01 to 10 nM
CC(C)(CNC(=O)C(=O)Nc1ccc(Cl)nc1)CNC(=O)c1ccc(Nc2nc(NC3(c4ccc(Cl)cc4)CC3)nc(OCC(F)(F)F)n2)cc1 [Compound 3255]	0.01 to 10 nM
CC(C)(CNC(=O)C(=O)Nc1cccnc1-n1cccn1)CNC(=O)c1ccc(Nc2nc(NC3(c4ccc(Cl)cc4)CC3)nc(OCC(F)(F)F)n2)cc1 [Compound 3256]	0.01 to 10 nM
COc1ccc(NC(=O)C(=O)NCC(C)(C)CNC(=O)c2ccc(Nc3nc(NC4(c5ccc(Cl)cc5)CC4)nc(OCC(F)(F)F)n3)cc2)cn1 [Compound 3257]	0.01 to 10 nM
CC(C)(CNC(=O)C(=O)Nc1cccnc1-c1ccccc1)CNC(=O)c1ccc(Nc2nc(NC3(c4ccc(Cl)cc4)CC3)nc(OCC(F)(F)F)n2)cc1 [Compound 3258]	0.01 to 10 nM
CC(C)OC(=O)c1ccc(NC(=O)C(=O)NCC(C)(C)CNC(=O)c2ccc(Nc3nc(NC4(c5ccc(Cl)cc5)CC4)nc(OCC(F)(F)F)n3)cc2)cc1 [Compound 3259]	0.01 to 10 nM
Cc1ccn(-c2ccccc2NC(=O)C(=O)NCC(C)(C)CNC(=O)c2ccc(Nc3nc(NC4(c5ccc(Cl)cc5)CC4)nc(OCC(F)(F)F)n3)cc2)n1 [Compound 3260]	0.01 to 10 nM
CC(C)(CNC(=O)C(=O)Nc1cccc(F)c1F)CNC(=O)c1ccc(Nc2nc(NC3(c4ccc(Cl)cc4)CC3)nc(OCC(F)(F)F)n2)cc1 [Compound 3261]	0.01 to 10 nM
CC(C)(CNC(=O)C(=O)Nc1ccc(F)c(F)c1F)CNC(=O)c1ccc(Nc2nc(NC3(c4ccc(Cl)cc4)CC3)nc(OCC(F)(F)F)n2)cc1 [Compound 3262]	0.01 to 10 nM
CC(C)(CNC(=O)C(=O)Nc1ccc2c(c1)CCCC2=O)CNC(=O)c1ccc(Nc2nc(NC3(c4ccc(Cl)cc4)CC3)nc(OCC(F)(F)F)n2)cc1 [Compound 3263]	0.01 to 10 nM
CC(C)(CNC(=O)C(=O)Nc1ccc(C(=O)c2ccc(N)cc2)cc1)CNC(=O)c1ccc(Nc2nc(NC3(c4ccc(Cl)cc4)CC3)nc(OCC(F)(F)F)n2)cc1 [Compound 3264]	0.01 to 10 nM

Source: patent US8916702B2 (priority 2012, dated 2014)
